Where two headings read alike, the source gives them in different places. Where a SMILES comes first, the peptide text is derived from it. [ ]: non-standard residue; d: D form. Aib = CC(C)(N)C(=O)O
Tests used:
Assay in all cases: biochemical
Format in all cases: binding
HLA-DRB1*01:01 = target: T1, HLA-DRB1*01:01 (Homo sapiens, UniProt P01903+P01911, A100R/D57E/F55L/F60I/F76Y/I96L/L162R/M171V/P40L/Q125E/R42F/V115G/Y59C)
T1 construct: Human leukocyte antigen-DR molecules were immunopurified from homozygous EBV B lymphoblastoid cells; endogenous in cells

HLA-DRB1*07:01 = HLA-DRB1*07:01 (Homo sapiens, UniProt P01903+P01911, A100R/A102G/A103Q/D57E/D86V/E43K/F76Y/K127E/L162R/M171V/P40G/Q125H/Q99D/R33Q/R42Y/R54Q/S133A/S66F/T210M/V115G/Y107V/Y59L/Y89S)
HLA-DRB1*11:01 = HLA-DRB1*11:01 (Homo sapiens, UniProt P01903+P01911, A100R/A169T/A87E/I96F/K41T/L162R/M171V/P40S/Q125H/Q178H/Q39Y/Q99D/R42S/S66Y/T262R/V115G/W38E)
HLA-DRB1*04:01 = target: T2, HLA-DRB1*04:01 (Homo sapiens, UniProt P01903+P01911, A100K/A169T/F76Y/I96L/K127E/L162R/M171V/N62H/P40V/Q125Y/R42H/S133A/S149N/S66Y/V115G/V209L/W38E)
T2 construct: Human leukocyte antigen-DR molecules were immunopurified from homozygous EBV B lymphoblastoid cells; endogenous in cells

HLA-DRB5*01:01 = target: T3, HLA-DRB5*01:01 (Homo sapiens, UniProt P01903+Q30154)
T3 construct: Human leukocyte antigen-DR molecules were immunopurified from homozygous EBV B lymphoblastoid cells; endogenous in cells

[1] = […], mean of at least two independent experiments, read-out: IC50 DRB1*0101
[2] = […], mean of at least two independent experiments, read-out: IC50 DRB1*0701 (converted)
[3] = […], mean of at least two independent experiments, read-out: IC50 DRB1*1101 (converted)
[4] = […], mean of at least two independent experiments, read-out: IC50 DRB1*0401
[5] = […], mean of at least two independent experiments, read-out: IC50 DRB5*0101

Sequence of HLA-DRB1*11:01 (P01903 26-254 limits assumed, other chains not shown): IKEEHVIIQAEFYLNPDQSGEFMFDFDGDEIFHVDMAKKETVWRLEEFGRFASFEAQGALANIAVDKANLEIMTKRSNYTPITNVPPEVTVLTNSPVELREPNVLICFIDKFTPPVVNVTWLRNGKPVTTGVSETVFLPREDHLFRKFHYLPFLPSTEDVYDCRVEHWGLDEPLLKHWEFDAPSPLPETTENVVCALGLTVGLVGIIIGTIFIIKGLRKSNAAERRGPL

| Structure (SMILES) | IC50 (HLA-DRB1*01:01; [1]) | IC50 (HLA-DRB1*07:01; [2]) | IC50 (HLA-DRB1*11:01; [3]) | IC50 (HLA-DRB1*04:01; [4]) | IC50 (HLA-DRB5*01:01; [5]) | IC50 (HLA-DRB1*01:01; IC50 DRB1*0101) | IC50 (HLA-DRB1*07:01) | IC50 (HLA-DRB1*11:01) | IC50 (HLA-DRB1*04:01) | IC50 (HLA-DRB5*01:01) |
| --- | --- | --- | --- | --- | --- | --- | --- | --- | --- | --- |
| CC(C)C[C@H](NC(=O)[C@H](CCCCN)NC(=O)[C@H](CC(C)C)NC(=O)[C@@H](NC(=O)[C@H](CC(N)=O)NC(=O)[C@H](CCC(N)=O)NC(=O)[C@H](CCCCN)NC(=O)[C@@H](NC(=O)[C@H](Cc1ccc(O)cc1)NC(=O)[C@H](CCCCN)NC(=O)C(C)(C)N)C(C)C)[C@@H](C)O)C(=O)N[C@@H](C)C(=O)N[C@H](C(=O)O)[C@@H](C)O [Aib1] (H-[Aib]KYVKQNTLKLAT-OH) | 0.3 nM | 11 nM | 18 nM | 20 nM | 3 nM |  |  |  |  |  |
| CC(C)C[C@H](NC(=O)[C@H](CCCCN)NC(=O)[C@H](CC(C)C)NC(=O)[C@@H](NC(=O)[C@H](CC(N)=O)NC(=O)[C@H](CCC(N)=O)NC(=O)[C@H](CCCCN)NC(=O)[C@@H](NC(=O)[C@H](Cc1ccc(O)cc1)NC(=O)C(C)(C)NC(=O)[C@@H]1CCCN1)C(C)C)[C@@H](C)O)C(=O)N[C@@H](C)C(=O)N[C@H](C(=O)O)[C@@H](C)O [Aib2] (H-P[Aib]YVKQNTLKLAT-OH) | 8 nM | 7700 nM | 4000 nM | 95 nM | 500 nM |  |  |  |  |  |
| CC(C)C[C@H](NC(=O)[C@H](CCCCN)NC(=O)[C@H](CC(C)C)NC(=O)[C@@H](NC(=O)[C@H](CC(N)=O)NC(=O)[C@H](CCC(N)=O)NC(=O)[C@H](CCCCN)NC(=O)[C@@H](NC(=O)C(C)(C)NC(=O)[C@H](CCCCN)NC(=O)[C@@H]1CCCN1)C(C)C)[C@@H](C)O)C(=O)N[C@@H](C)C(=O)N[C@H](C(=O)O)[C@@H](C)O [Aib3] | 60 nM | 460 nM | > 100000 nM | > 100000 nM | > 10000 nM |  |  |  |  |  |
| CC(C)C[C@H](NC(=O)[C@H](CCCCN)NC(=O)[C@H](CC(C)C)NC(=O)[C@@H](NC(=O)[C@H](CC(N)=O)NC(=O)[C@H](CCC(N)=O)NC(=O)[C@H](CCCCN)NC(=O)C(C)(C)NC(=O)[C@H](Cc1ccc(O)cc1)NC(=O)[C@H](CCCCN)NC(=O)[C@@H]1CCCN1)[C@@H](C)O)C(=O)N[C@@H](C)C(=O)N[C@H](C(=O)O)[C@@H](C)O [Aib4] | 10 nM | 6000 nM | 4000 nM | 75 nM | 280 nM |  |  |  |  |  |
| CC(C)C[C@H](NC(=O)[C@H](CCCCN)NC(=O)[C@H](CC(C)C)NC(=O)[C@@H](NC(=O)[C@H](CC(N)=O)NC(=O)[C@H](CCC(N)=O)NC(=O)C(C)(C)NC(=O)[C@@H](NC(=O)[C@H](Cc1ccc(O)cc1)NC(=O)[C@H](CCCCN)NC(=O)[C@@H]1CCCN1)C(C)C)[C@@H](C)O)C(=O)N[C@@H](C)C(=O)N[C@H](C(=O)O)[C@@H](C)O [Aib5] | 1 nM | 780 nM | 300 nM | 30 nM | 600 nM |  |  |  |  |  |
| CC(C)C[C@H](NC(=O)[C@H](CCCCN)NC(=O)[C@H](CC(C)C)NC(=O)[C@@H](NC(=O)[C@H](CC(N)=O)NC(=O)C(C)(C)NC(=O)[C@H](CCCCN)NC(=O)[C@@H](NC(=O)[C@H](Cc1ccc(O)cc1)NC(=O)[C@H](CCCCN)NC(=O)[C@@H]1CCCN1)C(C)C)[C@@H](C)O)C(=O)N[C@@H](C)C(=O)N[C@H](C(=O)O)[C@@H](C)O [Aib6] | 0.7 nM | 75 nM | 150 nM | 55000 nM | 5 nM |  |  |  |  |  |
| CC(C)C[C@H](NC(=O)[C@H](CCCCN)NC(=O)[C@H](CC(C)C)NC(=O)[C@@H](NC(=O)C(C)(C)NC(=O)[C@H](CCC(N)=O)NC(=O)[C@H](CCCCN)NC(=O)[C@@H](NC(=O)[C@H](Cc1ccc(O)cc1)NC(=O)[C@H](CCCCN)NC(=O)[C@@H]1CCCN1)C(C)C)[C@@H](C)O)C(=O)N[C@@H](C)C(=O)N[C@H](C(=O)O)[C@@H](C)O [Aib7] (H-PKYVKQ[Aib]TLKLAT-OH) | 6.8 nM | 4200 nM | 6000 nM | 45 nM | 900 nM |  |  |  |  |  |
| CC(C)C[C@H](NC(=O)[C@H](CCCCN)NC(=O)[C@H](CC(C)C)NC(=O)C(C)(C)NC(=O)[C@H](CC(N)=O)NC(=O)[C@H](CCC(N)=O)NC(=O)[C@H](CCCCN)NC(=O)[C@@H](NC(=O)[C@H](Cc1ccc(O)cc1)NC(=O)[C@H](CCCCN)NC(=O)[C@@H]1CCCN1)C(C)C)C(=O)N[C@@H](C)C(=O)N[C@H](C(=O)O)[C@@H](C)O [Aib8] | 0.8 nM | 90 nM | 550 nM | 140 nM | 140 nM |  |  |  |  |  |
| CC(C)C[C@H](NC(=O)[C@@H](NC(=O)[C@H](CC(N)=O)NC(=O)[C@H](CCC(N)=O)NC(=O)[C@H](CCCCN)NC(=O)[C@@H](NC(=O)[C@H](Cc1ccc(O)cc1)NC(=O)[C@H](CCCCN)NC(=O)[C@@H]1CCCN1)C(C)C)[C@@H](C)O)C(=O)NC(C)(C)C(=O)N[C@@H](CC(C)C)C(=O)N[C@@H](C)C(=O)N[C@H](C(=O)O)[C@@H](C)O [Aib10] | 9 nM | 16000 nM | 8000 nM | 490 nM | 5000 nM |  |  |  |  |  |
| CC(C)C[C@H](NC(=O)[C@@H](NC(=O)[C@H](CC(N)=O)NC(=O)[C@H](CCC(N)=O)NC(=O)[C@H](CCCCN)NC(=O)[C@@H](NC(=O)[C@H](Cc1ccc(O)cc1)NC(=O)[C@H](CCCCN)NC(=O)[C@@H]1CCCN1)C(C)C)[C@@H](C)O)C(=O)N[C@@H](CCCCN)C(=O)NC(C)(C)C(=O)N[C@@H](C)C(=O)N[C@H](C(=O)O)[C@@H](C)O [Aib11] | 20 nM | 3000 nM | 350 nM | 25 nM | 95 nM |  |  |  |  |  |
| CC(C)C[C@H](NC(=O)[C@H](CCCCN)NC(=O)[C@H](CC(C)C)NC(=O)[C@@H](NC(=O)[C@H](CC(N)=O)NC(=O)[C@H](CCC(N)=O)NC(=O)[C@H](CCCCN)NC(=O)[C@@H](NC(=O)[C@H](Cc1ccc(O)cc1)NC(=O)[C@H](CCCCN)NC(=O)[C@@H]1CCCN1)C(C)C)[C@@H](C)O)C(=O)NC(C)(C)C(=O)N[C@H](C(=O)O)[C@@H](C)O [Aib12] | 0.7 nM | 9 nM | 100 nM | 32 nM | 5 nM |  |  |  |  |  |
| CC(C)C[C@H](NC(=O)[C@H](CCCCN)NC(=O)[C@H](CC(C)C)NC(=O)[C@@H](NC(=O)[C@H](CC(N)=O)NC(=O)[C@H](CCC(N)=O)NC(=O)[C@H](CCCCN)NC(=O)[C@@H](NC(=O)[C@H](Cc1ccc(O)cc1)NC(=O)[C@H](CCCCN)NC(=O)[C@@H]1CCCN1)C(C)C)[C@@H](C)O)C(=O)N[C@@H](C)C(=O)NC(C)(C)C(=O)O [Aib13] | 0.2 nM | 6 nM | 8 nM | 6 nM | 2 nM |  |  |  |  |  |
| CC(C)C[C@H](NC(=O)[C@H](CCCCN)NC(=O)[C@H](CC(C)C)NC(=O)[C@@H](NC(=O)[C@H](CC(N)=O)NC(=O)[C@H](CCC(N)=O)NC(=O)[C@H](CCCCN)NC(=O)[C@@H](NC(=O)CN(Cc1ccc(O)cc1)C(=O)[C@H](CCCCN)NC(=O)[C@@H]1CCCN1)C(C)C)[C@@H](C)O)C(=O)N[C@@H](C)C(=O)N[C@H](C(=O)O)[C@@H](C)O [Pep3] | 4000 nM | > 100000 nM | > 100000 nM | > 10000 nM | 14000 nM |  |  |  |  |  |
| CC(C)C[C@H](NC(=O)[C@H](CCCCN)NC(=O)[C@H](CC(C)C)NC(=O)[C@@H](NC(=O)[C@H](CC(N)=O)NC(=O)[C@H](CCC(N)=O)NC(=O)[C@H](CCCCN)NC(=O)CN(C(=O)[C@H](Cc1ccc(O)cc1)NC(=O)[C@H](CCCCN)NC(=O)[C@@H]1CCCN1)C(C)C)[C@@H](C)O)C(=O)N[C@@H](C)C(=O)N[C@H](C(=O)O)[C@@H](C)O [Pep4] | 5 nM | 710 nM | 6000 nM | 14 nM | 280 nM |  |  |  |  |  |
| CC(C)C[C@H](NC(=O)[C@H](CCCCN)NC(=O)[C@H](CC(C)C)NC(=O)[C@@H](NC(=O)[C@H](CC(N)=O)NC(=O)CN(CCC(N)=O)C(=O)[C@H](CCCCN)NC(=O)[C@@H](NC(=O)[C@H](Cc1ccc(O)cc1)NC(=O)[C@H](CCCCN)NC(=O)[C@@H]1CCCN1)C(C)C)[C@@H](C)O)C(=O)N[C@@H](C)C(=O)N[C@H](C(=O)O)[C@@H](C)O [Pep6] | 0.4 nM | 290 nM | 45 nM | 82 nM | 10 nM |  |  |  |  |  |
| CC(C)C[C@H](NC(=O)[C@H](CCCCN)NC(=O)[C@H](CC(C)C)NC(=O)[C@@H](NC(=O)CN(CC(N)=O)C(=O)[C@H](CCC(N)=O)NC(=O)[C@H](CCCCN)NC(=O)[C@@H](NC(=O)[C@H](Cc1ccc(O)cc1)NC(=O)[C@H](CCCCN)NC(=O)[C@@H]1CCCN1)C(C)C)[C@@H](C)O)C(=O)N[C@@H](C)C(=O)N[C@H](C(=O)O)[C@@H](C)O [Pep7] |  |  |  |  |  | 0.3 nM | 16 nM | 200 nM | 450 nM | 15 nM |
| CC(C)C[C@H](NC(=O)[C@@H](NC(=O)[C@H](CC(N)=O)NC(=O)[C@H](CCC(N)=O)NC(=O)[C@H](CCCCN)NC(=O)[C@@H](NC(=O)[C@H](Cc1ccc(O)cc1)NC(=O)[C@H](CCCCN)NC(=O)[C@@H]1CCCN1)C(C)C)[C@@H](C)O)C(=O)N[C@@H](CCCCN)C(=O)N[C@@H](CC(C)C)C(=O)N(C)CC(=O)N[C@H](C(=O)O)[C@@H](C)O [Pep12] | 0.3 nM | 10 nM | 14 nM | 4 nM | 3 nM |  |  |  |  |  |
